# According to PubChem BioAssay AID1259407 (Chemical Carcinogenesis Research Information System (CCRIS), 2018):
# Activity calls are given as the source filed them. The rule behind the calls is not given here.
# System: CCRIS mutagenicity, Ames/micronucleus/aberration tests
# Assay: CCRIS mutagenicity studies
smiles,measurement,setting,value
O=Cc1c(Cl)cccc1Cl,mutagenic call,"Test System: AMES SALMONELLA TYPHIMURIUM, Strain/Indicator: TA97, Metabolic Activation: HAMSTER, LIVER, S-9, AROCLOR 1254 (10%), Method: PREINCUBATION",inactive; negative
same,mutagenic call,"Test System: AMES SALMONELLA TYPHIMURIUM, Strain/Indicator: TA97, Metabolic Activation: HAMSTER, LIVER, S-9, AROCLOR 1254 (30%), Method: PREINCUBATION",inactive; negative
same,mutagenic call,"Test System: AMES SALMONELLA TYPHIMURIUM, Strain/Indicator: TA97, Metabolic Activation: NONE, Method: PREINCUBATION",inactive; negative
same,mutagenic call,"Test System: AMES SALMONELLA TYPHIMURIUM, Strain/Indicator: TA97, Metabolic Activation: RAT, LIVER, S-9, AROCLOR 1254 (10%), Method: PREINCUBATION",inactive; negative
same,mutagenic call,"Test System: AMES SALMONELLA TYPHIMURIUM, Strain/Indicator: TA97, Metabolic Activation: RAT, LIVER, S-9, AROCLOR 1254 (30%), Method: PREINCUBATION",inactive; negative
same,mutagenic call,"Test System: AMES SALMONELLA TYPHIMURIUM, Strain/Indicator: TA98, Metabolic Activation: HAMSTER, LIVER, S-9, AROCLOR 1254 (10%), Method: PREINCUBATION",inactive; negative
same,mutagenic call,"Test System: AMES SALMONELLA TYPHIMURIUM, Strain/Indicator: TA98, Metabolic Activation: HAMSTER, LIVER, S-9, AROCLOR 1254 (30%), Method: PREINCUBATION",inactive; negative
same,mutagenic call,"Test System: AMES SALMONELLA TYPHIMURIUM, Strain/Indicator: TA98, Metabolic Activation: NONE, Method: PREINCUBATION",inactive; negative
same,mutagenic call,"Test System: AMES SALMONELLA TYPHIMURIUM, Strain/Indicator: TA98, Metabolic Activation: RAT LIVER S-9 PCB, Method: PREINCUBATION",inactive; negative
same,mutagenic call,"Test System: AMES SALMONELLA TYPHIMURIUM, Strain/Indicator: TA98, Metabolic Activation: RAT, LIVER, S-9, AROCLOR 1254 (10%), Method: PREINCUBATION",inactive; negative
same,mutagenic call,"Test System: AMES SALMONELLA TYPHIMURIUM, Strain/Indicator: TA98, Metabolic Activation: RAT, LIVER, S-9, AROCLOR 1254 (30%), Method: PREINCUBATION",inactive; negative
same,mutagenic call,"Test System: AMES SALMONELLA TYPHIMURIUM, Strain/Indicator: TA100, Metabolic Activation: HAMSTER, LIVER, S-9, AROCLOR 1254 (10%), Method: PREINCUBATION",inactive; negative
same,mutagenic call,"Test System: AMES SALMONELLA TYPHIMURIUM, Strain/Indicator: TA100, Metabolic Activation: HAMSTER, LIVER, S-9, AROCLOR 1254 (30%), Method: PREINCUBATION",inactive; negative
same,mutagenic call,"Test System: AMES SALMONELLA TYPHIMURIUM, Strain/Indicator: TA100, Metabolic Activation: NONE, Method: PREINCUBATION",inactive; negative
same,mutagenic call,"Test System: AMES SALMONELLA TYPHIMURIUM, Strain/Indicator: TA100, Metabolic Activation: RAT LIVER S-9, PCB, Method: PREINCUBATION",inactive; negative
same,mutagenic call,"Test System: AMES SALMONELLA TYPHIMURIUM, Strain/Indicator: TA100, Metabolic Activation: RAT, LIVER, S-9, AROCLOR 1254 (10%), Method: PREINCUBATION",inactive; negative
same,mutagenic call,"Test System: AMES SALMONELLA TYPHIMURIUM, Strain/Indicator: TA100, Metabolic Activation: RAT, LIVER, S-9, AROCLOR 1254 (30%), Method: PREINCUBATION",inactive; negative
same,mutagenic call,"Test System: AMES SALMONELLA TYPHIMURIUM, Strain/Indicator: TA104, Metabolic Activation: HAMSTER, LIVER, S-9, AROCLOR 1254 (10%), Method: PREINCUBATION",inactive; negative
same,mutagenic call,"Test System: AMES SALMONELLA TYPHIMURIUM, Strain/Indicator: TA104, Metabolic Activation: HAMSTER, LIVER, S-9, AROCLOR 1254 (30%), Method: PREINCUBATION",inactive; negative
same,mutagenic call,"Test System: AMES SALMONELLA TYPHIMURIUM, Strain/Indicator: TA104, Metabolic Activation: NONE, Method: PREINCUBATION",inactive; negative
same,mutagenic call,"Test System: AMES SALMONELLA TYPHIMURIUM, Strain/Indicator: TA104, Metabolic Activation: RAT LIVER S-9, PCB, Method: PREINCUBATION",inactive; negative
same,mutagenic call,"Test System: AMES SALMONELLA TYPHIMURIUM, Strain/Indicator: TA104, Metabolic Activation: RAT, LIVER, S-9, AROCLOR 1254 (10%), Method: PREINCUBATION",inactive; negative
same,mutagenic call,"Test System: AMES SALMONELLA TYPHIMURIUM, Strain/Indicator: TA104, Metabolic Activation: RAT, LIVER, S-9, AROCLOR 1254 (30%), Method: PREINCUBATION",inactive; negative
same,mutagenic call,"Test System: AMES SALMONELLA TYPHIMURIUM, Strain/Indicator: TA1535, Metabolic Activation: HAMSTER, LIVER, S-9, AROCLOR 1254 (10%), Method: PREINCUBATION",inactive; negative
same,mutagenic call,"Test System: AMES SALMONELLA TYPHIMURIUM, Strain/Indicator: TA1535, Metabolic Activation: HAMSTER, LIVER, S-9, AROCLOR 1254 (30%), Method: PREINCUBATION",inactive; negative
same,mutagenic call,"Test System: AMES SALMONELLA TYPHIMURIUM, Strain/Indicator: TA1535, Metabolic Activation: NONE, Method: PREINCUBATION",inactive; negative
same,mutagenic call,"Test System: AMES SALMONELLA TYPHIMURIUM, Strain/Indicator: TA1535, Metabolic Activation: RAT, LIVER, S-9, AROCLOR 1254 (10%), Method: PREINCUBATION",inactive; negative
same,mutagenic call,"Test System: AMES SALMONELLA TYPHIMURIUM, Strain/Indicator: TA1535, Metabolic Activation: RAT, LIVER, S-9, AROCLOR 1254 (30%), Method: PREINCUBATION",inactive; negative
same,mutagenic call,"Test System: E.COLI, Strain/Indicator: WP2 UVRA, Metabolic Activation: NONE, Method: PREINCUBATION",inactive; negative
same,mutagenic call,"Test System: E.COLI, Strain/Indicator: WP2 UVRA, Metabolic Activation: RAT LIVER S-9, PCB, Method: PREINCUBATION",inactive; negative
Fc1ccc(Br)cc1,mutagenic call,"Test System: Mouse lymphoma, Strain/Indicator: L5178Y (tk+/tk-), Metabolic Activation: None, Method: Suspension/plate",inconclusive
same,mutagenic call,"Test System: Mouse lymphoma, Strain/Indicator: L5178Y (tk+/tk-), Metabolic Activation: Rat, Liver, S-9, Aroclor 1254, Method: Suspension/plate",inconclusive
C=C(C=O)C[C@@H]1C[C@H](O)[C@@H]2O[C@@H]3C[C@@H]4O[C@@H]5/C=C\C[C@@H]6O[C@H]7[C@H](C/C=C\C[C@H]6O[C@H]5CCC[C@H]4O[C@H]3C[C@H]2O1)O[C@@H]1C[C@@H]2O[C@@H]3CC(=O)O[C@H]3C[C@@H](C)C[C@@]2(C)O[C@H]1C[C@@H]7C,mutagenic call,"End Point: In vitro chromosomal aberrations, Test System: Chinese hamster ovary (CHO-K1-BH4) cells, Metabolic Activation: None",active; positive (structural changes)
